Results on one substance are retold here after patent US20180195091A1, “THERMOPHILIC MICROORGANISMS FOR CONVERSION OF LIGNOCELLULOSIC BIOMASS TO ETHANOL” (THE TRUSTEES OF DARTMOUTH COLLEGE, priority 2015, published 2018).

The assay has as its system purified AdhE proteins in C. thermocellum, with the exception of LL346. Description: Product inhibition of purified AdhE. It is filed as biochemical, Clostridium thermocellum. The settings on record: concentration not stated. Here is the method:
The E. coli crude extracts described above were incubated at 50° C. anaerobically for 20 min to denature E. coli proteins, and the denatured proteins were separated by centrifugation. In strains LL346 and LL1040, the AdhE proteins were heat labile, and lost activity after 50° C. incubation, so these cell extracts were applied directly to the purification column without heating. E. coli cells expressing the control plasmid pNT-CALML3 were subject to the same treatment as above, and its ADH and ALDH activities before and after heat treatment were measured (Table S3). […] For C. thermocellum and T. saccharolyticum AdhE, activity was measured at various stages during purification. […]
All the ALDH activity measurements mentioned in this study refer to the reaction in the acetaldehyde-producing direction. […] Decrease in absorbance at 340 nm caused by NAD(P)H oxidation was monitored by an Agilent 8453 UV-Vis spectrophotometer with Peltier temperature control. Protein concentration was determined using the Bradford method with bovine serum albumin (Thermo Scientific) as the standard. Specific activities are expressed as units per mg of protein. […] The software Visual Enzymics (SoftZymics) was used for non-linear regression to calculate the apparent Km, and kcat values in Table 10. kcat was calculated on the basis of a molecular weight of 97-kDa (26). […]

Turning to NAD(P)^+, the “activity inhibited by NAD(P)^+” value is recorded as “at least 70%”.
